Measurements: PubChem BioAssay (NCI)
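Exposure lasted 48 hours, with cells grown in 96-well plates and compounds tested at five concentrations. GI50 marks 50% less growth. At the TGI there is no net growth.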

How the values were obtained:
Assay in all cases: NCI anticancer screen, dose series, 48 h
SK-MEL-5 melanoma = tested on: SK-MEL-5 melanoma
HL-60(TB) leukemia = tested on: HL-60(TB) leukemia
NCI-H522 lung = tested on: NCI-H522 lung
SR leukemia = tested on: SR leukemia
SN12C renal = tested on: SN12C renal
UACC-257 melanoma = tested on: UACC-257 melanoma
HT29 colon = tested on: HT29 colon
HCC-2998 colon = tested on: HCC-2998 colon
SNB-78 CNS = tested on: SNB-78 CNS

SMILES	GI50 (SK-MEL-5 melanoma) [µM]	TGI (SK-MEL-5 melanoma) [µM]	GI50 (HL-60(TB) leukemia) [µM]	TGI (HL-60(TB) leukemia) [µM]	GI50 (NCI-H522 lung) [µM]	TGI (NCI-H522 lung) [µM]	GI50 (SR leukemia) [µM]	TGI (SR leukemia) [µM]	GI50 (SN12C renal) [µM]	TGI (SN12C renal) [µM]	GI50 (UACC-257 melanoma) [µM]	TGI (UACC-257 melanoma) [µM]	GI50 (HT29 colon) [µM]	TGI (HT29 colon) [µM]	GI50 (HCC-2998 colon) [µM]	TGI (HCC-2998 colon) [µM]	TGI (SNB-78 CNS) [µM]
CC(C)=CCc1cc2c(cc1O)C1=C(C(=O)C3=C(NCCS3(=O)=O)C1=O)C(C=C(C)C)O2 (configuration not stated)	3.35	6.95	4.43	13.5	2.93	9.09	5.46	> 16.7	2.78	5.69	3.48	9.66	7.35	> 16.7	9.25	> 16.7	–
N#CC1=C(N)Oc2c(sc3c(Br)cccc23)C1c1ccc([N+](=O)[O-])cc1 (configuration not stated)	0.0652	4.45	0.0816	1.15	0.0216	0.616	0.048	6.45	1	13.1	11.4	27.5	0.297	3.2	0.284	6.94	–
COc1cc2cc(NCc3cccc(Cl)c3)nc(C)c2cc1OC	3.27	13.7	2.95	55.9	1.01	10.4	1.66	44.9	2.21	17.4	4.61	19.3	0.462	11.4	2.27	14.5	–
O=c1[nH]c2ccccc2n1C1CCNCC1	> 100	> 100	> 100	> 100	> 100	> 100	> 100	> 100	> 100	> 100	> 100	> 100	> 100	> 100	> 100	> 100	–
COc1cccc2c1nc(C(F)F)n2-c1nc(-c2ccc(NS(=O)(=O)CCN(C)C)cc2)nc(N2CCOCC2)n1	0.204	1.76	0.0397	10.2	0.081	1.26	0.319	3.87	0.305	> 100	0.116	1.72	0.0999	4.39	0.0974	17.4	–
C=CCC1(O)c2ccccc2C(=O)c2c(OCC(=O)OCC)ccc(OCC(=O)OCC)c21 (configuration not stated)	> 100	> 100	75.9	> 100	> 100	> 100	82.6	> 100	87.6	> 100	> 100	> 100	> 100	> 100	44.9	> 100	–
COC(=O)N[C@H]1CCc2cc(OC)c(OC)c(OC)c2-c2ccc(SC)c(=O)cc21	< 0.01	0.0191	< 0.01	–	< 0.01	> 19.9	< 0.01	> 100	< 0.01	> 100	50.7	> 100	< 0.01	> 100	< 0.01	> 100	–
CCN(Cc1ccc(OC)cc1)c1ccc(CO)c(Cl)c1	2.66	18.6	13.8	59.9	16.6	46.7	24.7	> 72.5	14.5	39.3	0.124	0.312	2.07	17.3	12.9	40.4	–
Cn1cc(C2=C(c3ccsc3)C(=O)NC2=O)c2ccccc21	> 25	> 25	> 25	> 25	> 25	> 25	> 25	> 25	> 25	> 25	> 25	> 25	> 25	> 25	> 25	> 25	–
O=C(CCc1n[nH]c(=S)o1)Nc1cc(Cl)ccc1Cl	–	> 100	–	78.9	–	–	–	–	–	> 100	–	> 100	–	> 100	–	> 100	> 100
CN1C(=O)C(c2c[nH]c3ccccc23)=C(c2c[nH]c3ccccc23)C1=O	4.5	10.9	6.37	18.1	4.69	12.5	7.14	> 25	7.75	> 25	7.65	24.8	8.47	> 25	5.46	13.1	–
CC1=C(CCCOC(=O)[C@H](N)CC(C)C)C2=C(C)C3(CC3)[C@@](C)(O)C(=O)C2=C1	1.44	2.83	2.01	13.2	2.69	11.1	12.8	> 100	2.6	> 100	2.53	6.06	2.22	6.02	1.78	4.49	–
C/C(=C\C(=O)O[C@H]1[C@@H]2[C@H](C)CC[C@H]2[C@]2(C)O[C@@]1(C1CCCCC1)C[C@H]2OC(=O)CO)c1ccccc1	6.45	11.9	5.04	13.1	6.55	13.1	6.87	15	0.0228	7.18	6.96	13.3	6.47	13	7.32	14.4	–
O=C1C=C(Nc2ccccc2)c2ccccc2C1=O	1.7	3.12	2.82	7.83	1.67	3.36	3.22	12.4	1.62	3.11	1.79	3.25	2.35	5.17	2.02	4.62	–
CC1CCCCCC(=O)c2c(O)cc(O)cc2CC(=O)O1 (configuration not stated)	–	> 100	–	> 100	–	> 100	–	> 100	–	> 100	–	> 100	–	> 100	–	> 100	–
